Results reported in PubChem BioAssay (NCI).
“And” between values parts separate entries of the source, which are not always exact repeats. Identical values can stand only once.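 Method: 48-hour compound exposure of cells in 96-well plates, five concentrations, linear interpolation of endpoints. GI50 = concentration required for 50% inhibition of growth. TGI: concentration producing complete growth inhibition.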

Key:
Assay in all cases: NCI-60 cell line screen, 48 h
HCT-116 colon = tested on: HCT-116 colon
IGROV1 ovarian = tested on: IGROV1 ovarian
U251 CNS = tested on: U251 CNS
NCI-H23 lung = tested on: NCI-H23 lung
SF-295 CNS = tested on: SF-295 CNS
HOP-92 NSCLC = tested on: HOP-92 NSCLC
RXF 393 renal = tested on: RXF 393 renal
HS 578T breast = tested on: HS 578T breast
BT-549 breast = tested on: BT-549 breast
T-47D breast = tested on: T-47D breast

SMILES | TGI (HCT-116 colon) | TGI (IGROV1 ovarian) | TGI (U251 CNS) | TGI (NCI-H23 lung) | TGI (SF-295 CNS) [µM] | TGI (HOP-92 NSCLC) [µM] | TGI (RXF 393 renal) [µM] | GI50 (RXF 393 renal) | GI50 (U251 CNS) | TGI (HS 578T breast) [µM] | TGI (BT-549 breast) [µM] | TGI (T-47D breast) [µM] | GI50 (HCT-116 colon) [µM] | GI50 (IGROV1 ovarian) [µM] | GI50 (HS 578T breast) [µM] | GI50 (BT-549 breast) [µM] | GI50 (NCI-H23 lung) [µM] | GI50 (HOP-92 NSCLC) [µM] | GI50 (T-47D breast) [µM] | GI50 (SF-295 CNS) [µM]
N=CCCN(CCC=N)c1ccc(/C=C2\CN(NC(=O)c3ccc(Cl)cc3)C(c3ccccc3)=N2)cc1 | > 100 µM | > 100 µM | 76.1 µM | > 100 µM | > 100 | > 100 | – | – | – | – | – | – | – | – | – | – | – | – | – | –
C[C@@H](C1CCC2C3C(=CC(=O)[C@@]21C)[C@H](C)[C@]1(CCC(=O)O1)C1OC31)[C@H]1C[C@]2(C)O[C@@](C)(O1)OC2(C)C (some centres not stated) | > 100 µM | > 100 µM | > 100 µM | > 100 µM | > 100 | > 100 | > 100 | – | – | – | – | – | – | – | – | – | – | – | – | –
N#CNC(N)=NCCO | > 100 µM | > 100 µM | > 100 µM | > 100 µM | > 100 | > 100 | 68.3 | – | – | – | – | – | – | – | – | – | – | – | – | –
O=C(c1ccccc1)C(c1ccccc1)C1(O)C(=O)Nc2ccccc21 (configuration not stated) | > 100 µM | > 100 µM | – | > 100 µM | > 100 | > 100 | > 100 | – | – | – | – | – | – | – | – | – | – | – | – | –
C/C=C(\C)c1cc(=O)c2c(C)cc3c(c2o1)C(=O)c1c(O)c(C2CC(C)(N(C)C)C(O)C(C)O2)cc(C2CC(N(C)C)C(O)C(C)O2)c1C3=O (configuration not stated) | 1.3 µM and 10.2 µM | 3.2 µM and > 27.6 µM | 1.35 µM and 5.71 µM | 1.03 µM and 9.29 µM | – | – | – | 0.156 µM and 1.39 µM | 0.206 µM and 1.74 µM | 0.517 | 0.735 | 3.12 | – | – | – | – | – | – | – | –
Cc1ccc(NC(=O)CC/C(CC(=O)C(C)(C)C)=N/NC(=O)C(N)=O)cc1C | > 100 µM | > 100 µM | > 100 µM | > 100 µM | > 100 | > 100 | > 100 | – | – | – | – | – | – | – | – | – | – | – | – | –
O=C(/C=C/C12c3ccccc3C(c3ccccc31)C1C(=O)N(c3ccccc3)C(=O)C12)c1ccc(Cl)cc1 (configuration not stated) | 2.16 µM | 6.09 µM | 4.82 µM | 13.2 µM | – | 3.26 | 2.87 | 1.27 µM | 1.84 µM | 5.92 | 2.88 | – | 0.537 | 2.1 | 1.82 | 1.37 | 2.61 | 1.33 | – | –
COc1cc([N+](=O)[O-])c(S(=O)(=O)O)cc1NS(=O)(=O)c1ccc(C)cc1 | > 100 µM | > 100 µM | > 100 µM | > 100 µM | > 100 | – | – | – | – | > 100 | > 100 | > 100 | – | – | – | – | – | – | – | –
CC(N=C(N)N)C(=O)O (configuration not stated) | > 100 µM | > 100 µM | > 100 µM | > 100 µM | > 100 | – | > 100 | – | – | > 100 | > 100 | > 100 | – | – | – | – | – | – | – | –
COc1cc2c(c(OC)c1OC)C(=O)CC(c1cccc(NC(=O)c3ccc(Br)cc3)c1)O2 (configuration not stated) | > 100 µM | > 100 µM | > 100 µM | > 100 µM | > 100 | – | > 100 | 4.07 µM | 3.07 µM | > 100 | 6.39 | 5.98 | 2.63 | 3.05 | 4.1 | 2.09 | 2.87 | – | 1.41 | 2.6
Cc1c(C(=O)CC(=O)C(=O)Nc2c(C(C)C)cccc2C(C)C)[n+](=O)c2ccccc2n1[O-] | 9.1 µM | 11.4 µM | 10.7 µM | 34 µM | 29.1 | 35.1 | 38.9 | – | – | – | – | – | – | – | – | – | – | – | – | –
Clc1ccccc1C(n1ncc2ccccc21)n1ncc2ccccc21 | > 100 µM | > 10 µM | > 100 µM | > 100 µM | > 100 | > 100 | > 100 | – | – | – | – | – | – | – | – | – | – | – | – | –
O=C1c2cccc3cc([N+](=O)[O-])cc(c23)C(=O)N1NC1=NCCN1 | > 100 µM | > 100 µM | > 100 µM | > 100 µM | > 100 | > 100 | > 100 | – | – | – | – | – | – | – | – | – | – | – | – | –
O=C(CCN1CCOCC1)Nc1ccc(F)cc1F | > 100 µM | > 100 µM | > 100 µM | > 100 µM | > 100 | > 100 | – | – | – | > 100 | > 100 | > 100 | – | – | – | – | – | – | – | –
Cc1nc2ccccc2c(=O)n1/N=C(\N=Nc1cc(Cl)ccc1Cl)c1cccc(-c2ccco2)c1 | > 100 µM | > 100 µM | > 100 µM | > 100 µM | > 100 | 99.5 | > 100 | – | – | – | – | – | – | – | – | – | – | – | – | –
CC(C)(C)N/N=C(\Cc1occc(=O)c1O)C(=O)Nc1ccc([N+](=O)[O-])cc1[N+](=O)[O-] | > 100 µM | > 100 µM | > 100 µM | > 100 µM | > 100 | > 100 | > 100 | – | – | – | – | – | – | – | – | – | – | – | – | –
COc1cc(=O)oc(/C=C/C=O)c1C | 17.4 µM | > 100 µM | 28.6 µM | 46.7 µM | 30.3 | 53.4 | 34.8 | – | – | – | – | – | – | – | – | – | – | – | – | –
O=C1c2ccccc2C(=O)C2C1C1C(=O)c3ccccc3C(=O)C21 (configuration not stated) | – | > 100 µM | > 100 µM | > 100 µM | > 100 | > 100 | > 100 | – | – | – | – | – | – | – | – | – | – | – | – | –
O=C(/C=C1\C(=O)N(Cc2ccc([N+](=O)[O-])cc2)c2ccccc21)c1ccc(OCCN2CCCCC2)cc1 | 1.43 µM | – | 3.09 µM | 2.97 µM | 4.12 | 2.37 | – | – | 1.72 µM | 6.09 | 3 | – | 0.366 | – | 1.71 | 1.64 | 1.47 | 1.07 | – | 1.78
O=C(Cn1c(=O)c(-c2ccccc2)nc2ccccc21)c1ccc(Cl)cc1 | > 100 µM | > 100 µM | > 100 µM | > 100 µM | > 100 | 65 | – | – | 37.6 µM | > 100 | – | > 100 | > 100 | 63.3 | 43.5 | – | > 100 | 27.2 | > 100 | 35.7
NC(N)=NS(=O)(=O)c1ccc(Nc2c3ccccc3nc3c(C(=O)N4CCN(CCO)CC4)cccc23)cc1 | > 100 µM | > 100 µM | > 100 µM | > 100 µM | > 100 | > 100 | > 100 | – | – | – | – | – | – | – | – | – | – | – | – | –
